Experimental data as given in patent US20090306342A1, “BINDING OF MOLECULES” (BIO-LAYER PTY LIMITED, priority 2005, published 2009).
Entries after “also recorded” stand apart in the source; their conditions may differ.

Columns and labels:
Fc of an antibody = details: Protein A binding region; cited from earlier work
Human IgG = experiment: SPR IgG binding assay on gold (Example 4); details: IgG 10-100 ug/mL, polyacrylic acid on gold, FIG. 7
Protocol: Slides were then rinsed in Ethanol and incubated in a solution of 1% Polyacrylic acid. 2% w/v Polyacrylic acid was prepared by adding […] of Stock 10% w/v PAA solution (Poly(Acrylic Acid) MW 50K 10% w/v solution in DMF) to […] (N,N-Dimethylformamide (DMF) Labscan HPLC Grade—Dried over sieves and filtered). 100 mM solutions of NHS and DIC were prepared in dry DMF (N-Hydroxysuccinimide (NHS) (Aldrich cat: 130672), N,N′-Diisopropylcarbodiimide (DIC) (Sigma Aldrich cat: D125407)). 15 mL of 100 mM NHS and 15 mL of 100 mM DIC were added to 30 mL of 2% w/v of PAA solution and shaken on a RATEK platform mixer with speed setting 70 for 10 minutes. This gave a final 1.0% w/v solution of activated PAA. Each amino functionalized gold slide was placed in 10 mL of activated 1% wlv PAA solution and allowed to shake on a RATEK platform mixer with speed setting […] for 1 hour. The slides were then rinsed with dry DMF and using house nitrogen with a filter pipette tip in the end of the hose, the slides were blown dry using a concentrated flow over each slide. […]
The first concentration of IgG to be flowed through the cell and over the slide was 10 μg/mL. […] After the final concentration of 100 μg/mL IgG was analyzed, the signal was monitored by flowing 10 mM Phosphate Buffered Saline pH7.4 with 0.2% Tween20 over the slide. […]

- IgG binding by SPR (Human IgG): poor or non-existent
Structure (SMILES): NCCNc1nc(NCCc2ccc(O)cc2)nc(Nc2ccccc2)n1 [APA, 2-(2-aminoethylamino)-4-anilino-6-tyramino-s-triazine]
- affinity for the Fc of an antibody (Fc of an antibody): medium affinity; also recorded: weakly binds
